We go through ten molecules from patent publication US4243408A, “Herbicidal N-triazolylmethyl-substituted alpha-haloacetanilide” (Chevron Research Company, priority 1978, dated 1981).

What all share (type): in vivo
Assay [1] deals with Wild Oats (Avena fatua). Nature of the assay: Pre-Emergent Test, herbicidal effectiveness. Particulars: pre-emergence, 504 h, 33 micrograms per cm^2, 3 weeks, 0-to-100 scale, read-out: Herbicidal Effectiveness, % Control Pre, O. In a few lines: (§1)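 Soil-surface application at a dose of 33 micrograms/cm^2 to newly planted seeds, followed by watering and greenhouse incubation. Effectiveness scored visually, 0–100 scale.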

Assay [2] has as its system Lambsquarter (Chenopodium album). Kind of assay: Pre-Emergent Test, herbicidal effectiveness. As to conditions: pre-emergence, 504 h, 33 micrograms per cm^2, 3 weeks, 0-to-100 scale, read-out: Herbicidal Effectiveness, % Control Pre, L. In a few lines:
as §1

The test system of assay [3] is Watergrass (Echinochloa). Kind of assay: Pre-Emergent Test, herbicidal effectiveness. As to conditions: pre-emergence, 504 h, 33 micrograms per cm^2, 3 weeks, 0-to-100 scale, read-out: Herbicidal Effectiveness, % Control Pre, W. In a few lines: as §1
For assay [4], the system named is Mustard (Brassica arvensis). Nature of the assay: Pre-Emergent Test, herbicidal effectiveness. As to conditions: pre-emergence, 504 h, 33 micrograms per cm^2, 3 weeks, 0-to-100 scale. In a few lines: as §1
The subject of assay [5] is Crabgrass (Digitaria sanguinalis). Kind of assay: Pre-Emergent Test, herbicidal effectiveness. As to conditions: pre-emergence, 504 h, 33 micrograms per cm^2, 3 weeks, 0-to-100 scale, read-out: Herbicidal Effectiveness, % Control Pre, C. In a few lines:
as §1

For assay [6], the system named is Pigweed (Amaranthus retroflexus). Nature of the assay: Pre-Emergent Test, herbicidal effectiveness. Particulars: pre-emergence, 504 h, 33 micrograms per cm^2, 3 weeks, 0-to-100 scale, read-out: Herbicidal Effectiveness, % Control Pre, P. In a few lines: as §1
Assay [7] relates to Wild Oats (Avena fatua). Kind of assay: Post-Emergent Test, herbicidal effectiveness. As to conditions: post-emergence, 504 h, 33 micrograms per cm^2, 3 weeks, 0-to-100 scale, read-out: Herbicidal Effectiveness, % Control Post, O. In a few lines: (§2)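 Herbicidal effect was judged visually 3 weeks after spraying 24-day-old plants (two pots, roughly 15–25 plants each) with 33 micrograms/cm^2 of compound applied as a 5000 ppm surfactant-containing formulation. Scale ran 0 (no phytotoxicity) to 100 (complete kill).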

Assay [8] deals with Lambsquarter (Chenopodium album). Kind of assay: Post-Emergent Test, herbicidal effectiveness. As to conditions: post-emergence, 504 h, 33 micrograms per cm^2, 3 weeks, 0-to-100 scale, read-out: Herbicidal Effectiveness, % Control Post, L. In a few lines:
as §2

Assay [9] deals with Watergrass (Echinochloa). Kind of assay: Post-Emergent Test, herbicidal effectiveness. Particulars: post-emergence, 504 h, 33 micrograms per cm^2, 3 weeks, 0-to-100 scale, read-out: Herbicidal Effectiveness, % Control Post, W. In a few lines:
as §2

For assay [10], the system named is Mustard (Brassica arvensis). Kind of assay: Post-Emergent Test, herbicidal effectiveness. Particulars: post-emergence, 504 h, 33 micrograms per cm^2, 3 weeks, 0-to-100 scale. In a few lines:
as §2

In assay [11] the test system is Crabgrass (Digitaria sanguinalis). Nature of the assay: Post-Emergent Test, herbicidal effectiveness. Particulars: post-emergence, 504 h, 33 micrograms per cm^2, 3 weeks, 0-to-100 scale, read-out: Herbicidal Effectiveness, % Control Post, C. In a few lines:
as §2

In assay [12] the test system is Pigweed (Amaranthus retroflexus). Kind of assay: Post-Emergent Test, herbicidal effectiveness. As to conditions: post-emergence, 504 h, 33 micrograms per cm^2, 3 weeks, 0-to-100 scale, read-out: Herbicidal Effectiveness, % Control Post, P. In a few lines: as §2

Regarding `CCc1cccc(CC)c1NCc1nnc[nH]1` [Compound 20A], the pest or weed control at 33 µg/cm2 in [1], in [2], in assay [3], in assay [4], in [5] and in [6] was 0% each time. Besides, the pest or weed control at 5000 µg/mL, 33 µg/cm2 in assay [7], in assay [8], in assay [9], in assay [10], in [11] and in assay [12] was 0% each time.
Turning to `Cc1nnc(CN(C(=O)CCl)c2ccc(Cl)c(Cl)c2)[nH]1` [Compound 27B], the pest or weed control at 33 µg/cm2 in assay [1], in [2], in assay [3], in assay [4], in assay [5] and in assay [6] was 0% each time. The pest or weed control at 5000 µg/mL, 33 µg/cm2 in [7], in [8], in [9], in assay [10], in [11] and in assay [12] was 0% in each case.
For `Cc1cccc(C)c1N(CCc1nnc[nH]1)C(=O)CCl` [Compound 13], the pest or weed control at 33 µg/cm2 in assay [1] came to 25%; in assay [2], 75%; in assay [3], 97%; in assay [4], 20%; in [5], 85%; in assay [6], 40%. For the same molecule, the pest or weed control at 5000 µg/mL, 33 µg/cm2 was found to be 20% in assay [7]; 0% in assay [8]; 63% in assay [9]; 0% in [10]; 60% in assay [11]; 0% in [12].
Consider `Cc1nnc(CN(C(=O)CCl)c2c(C)cccc2C)o1` [Compound 1B, N-(5-methyl-1,3,4-oxadiazol-2-ylmethyl)-2,6-dimethyl-alpha-chloroacetanilide], for which the pest or weed control at 33 µg/cm2 in [1] was found to be 90%; in assay [2], 50%; in [3], 100%; in [4] it was 45%; in assay [5], 100%; in assay [6], 87%. The pest or weed control at 5000 µg/mL, 33 µg/cm2 in [7], in [8], in assay [9], in [10], in [11] and in assay [12] was 0% throughout.
As for `CCc1nnc(CNc2c(CC)cccc2CC)[nH]1` [Compound 8A], the pest or weed control at 33 µg/cm2 in assay [1], in [2], in assay [3], in assay [4], in assay [5] and in [6] was 0% in each case. Besides, the pest or weed control at 5000 µg/mL, 33 µg/cm2 in assay [7], in assay [8], in [9], in [10], in assay [11] and in assay [12] was 0% throughout.
Take `CCc1cccc(C)c1N(Cc1nnc(C)o1)C(=O)CCl` [Compound 4]: the pest or weed control at 33 µg/cm2 in assay [1] is 93%; in [2], 10%; in assay [3], 100%; in assay [4], 10%; in [5] it was 100%; in assay [6], 65%. Besides, the pest or weed control at 5000 µg/mL, 33 µg/cm2 is 50% in assay [7]; 0% in assay [8]; 60% in assay [9]; 0% in [10]; 20% in assay [11]; 0% in assay [12].
As for `Cc1nnc(CNc2c(C)cccc2C)o1` [Compound 1A, 2-(2,6-dimethylphenylaminomethyl)-5-methyl-1,3,4-oxadiazole], the pest or weed control at 33 µg/cm2 in assay [1], in [2], in assay [3], in assay [4], in [5] and in assay [6] was 0% throughout. Also, the pest or weed control at 5000 µg/mL, 33 µg/cm2 in assay [7], in assay [8], in [9], in assay [10], in assay [11] and in assay [12] was 0% each time.
Turning to `Cc1cccc(C)c1NC(C)c1nnc[nH]1` (stereo not drawn) [Compound 12A], the pest or weed control at 33 µg/cm2 in assay [1], in assay [2], in [3], in assay [4], in assay [5] and in [6] was 0% throughout. The pest or weed control at 5000 µg/mL, 33 µg/cm2 in [7], in assay [8], in [9], in [10], in assay [11] and in assay [12] was 0% in each case.
Consider `CCc1cccc(CC)c1N(Cc1nnc[nH]1)C(=O)CCl` [Compound 20B], for which the pest or weed control at 33 µg/cm2 in [1] is 97%; in assay [2] it was 97%; in assay [3], 100%; in [4], 95%; in assay [5], 95%; in [6], 100%. For the same molecule, the pest or weed control at 5000 µg/mL, 33 µg/cm2 in [7] turned out to be 0%; in assay [8], 25%; in assay [9] it was 55%; in assay [10] it was 30%; in assay [11], 30%; in assay [12], 35%.
With `Cc1nnc(CN(C(=O)CCl)c2c(C)cccc2Cl)[nH]1` [Compound 22B], the pest or weed control at 33 µg/cm2 in assay [1] was determined as 95%; in assay [2], 85%; in [3], 100%; in assay [4], 80%; in assay [5], 100%; in assay [6], 93%. Also, the pest or weed control at 5000 µg/mL, 33 µg/cm2 came out at 0% in assay [7]; 20% in assay [8]; 60% in assay [9]; 25% in assay [10]; 0% in assay [11]; 75% in [12].
